{
  "source": "patent US20070087064A1",
  "about": "“Composition for preventing and treating climacteric symptoms comprising the extract of sophorae fructus” (DREXGENEBIOTECH CO., LTD., priority 2003, published 2007)",
  "key": {"Dpd (deoxypyridinoline)": {"tested_on": "Dpd (deoxypyridinoline)", "experiment": "Dpd concentration in blood plasma of ovari-ectomized rats", "assay_type": "in vivo, rat", "procedure": "(§1) For removal of ovary, a 12-week old white rat was anesthetized by ether. The rat got a shave on its back by a razor. Oophorectomy was performed after sterilizing the operating area with 70% ethanol. Particularly, skin was cut 2˜3 cm along the spinal column of the abdominal lower-flank region of one side, and then, muscle and peritoneum were incised 1.5 cm to exposure ovary. After ligating oviduct by a silk, the ovary was cut off and peritoneum, muscle and skin were sutured by a silk. The other side ovary was ectomized by the same procedure. Sham operation was performed for a control group, which opened peritoneum but sutured without taking ovary out. A period of recovery was 1 week.\nTest animals were classified into three groups; a normal group (non-ovari-ectomized group), a control group 1 (sham-operated group) and an ovari-ectomized group. […]\nDpd concentration in blood plasma obtained above was measured by competitive enzyme immunoassay using a Dpd concentration measuring kit (Pyrilinks-D, Quidel Corporation, USA) in which an anti-Dpd antibody was included. […] After reaction was finished, OD450 was measured. Then, Dpd concentration was calculated by using a calibration curve made to explain the relation between Dpd content and optical density (FIG. 11).\nBased on the result of the above Example <5-4>, changes of Dpd concentration after administering each sample for 9 weeks were quantified by the below formula. […]\nIn order to confim the effects of the extract of Sophorae Fructus of the present invention, Dpd concentrations in groups administered with the extract of Sophorae Fructus of the present invention were calculated by comparing with Dpd concentration in a control group 2 (ovari-ectomized) in which osteoporosis was progressed much. […]"}, "[1]": {"tested_on": "MG-63 human osteoblast-like cells", "experiment": "Osteoblast proliferation, MTT method", "assay_type": "cell-based", "conditions": "MG-63 cells, 72 hours", "procedure": "MG-63 human osteoblast-like cells were distributed from Korean Cell Line Bank of Seoul National University College of Medicine, Seoul, Korea, which were sub-cultured for fuirther use. The frozen MG-63 human osteoblast-like cells were melted in a 37° C. water bath for 1 minute, followed by centrifugation with 1300 rpm for 5 minutes to eliminate supernatant. The obtained pellet was re-suspended in DMEM supplemented with 10% FBS, which was, then, distributed in a […] culture flask for further culture. The duration of culture was 2 weeks for cell stability. After confirming under a microscope that a monolayer was stably formed, the cells were used for the experiments. In order to investigate the osteoblast proliferation after the treatment of an extract of Sophorae Fructus, MG-63 human osteoblast-like cells of the above Example <4-1> were treated with the Sophorae Fructus extract powder of Example 1 (R-G), the Sophorae Fructus enzyme extract powder of Example 2 (R-A), and the food composition comprising an extract of Sophorae Fructus of Example 3 (R-P), which were cultured for 3 days. The effects of the above extracts on cell proliferation were measured by MTT method. […] After complete mixing, color changes were checked and OD570 was measured using an ELISA plate reader within an hour."}, "TGF-beta": {"tested_on": "TGF-beta", "experiment": "TGF-beta secretion in osteoblasts, ELISA", "assay_type": "cell-based, human", "conditions": "MG-63 cells", "procedure": "(§2) In order to investigate whether the extract of Sophorae Fructus of the present invention could stimulate the secretion of IGF-1 and TGF-beta in osteoblasts, each sample was treated to MG-63 human osteoblast-like cells by the same method as used in Example <4-4>, and then, ELISA and RT-PCR were performed to measure the secretion and the expression of IGF-1 and TGF-beta. The expression levels of IGF-1 and TGF-beta were represented by a comparative rate (%) to that of a control. ELISA was performed by using ELISA kit (Quantikine, R&D system) according to the provided protocol to investigate the secretion of IGF-1 and TGF-beta. Then, optical density was measured by the same method as used in the Example <4-4>. RT-PCR was also performed by the same method as used in the above Example <4-4>. Each primer used for the RT-PCR was presented below."}, "IGF-1": {"tested_on": "IGF-1", "experiment": "IGF-1 secretion in osteoblasts, ELISA", "assay_type": "cell-based, human", "conditions": "MG-63 cells, 10^-4%", "procedure": "as §2"}, "[2]": {"experiment": "Calcium concentration in blood plasma of ovari-ectomized rats, OCPC method", "assay_type": "in vivo, rat", "procedure": "as §1, with “week. Test animals were classified into three groups; a normal group (non-ovari-ectomized group), a control group 1 (sham-operated group) and an ovari-ectomized group. […] Therefore, measuring optical density of the magenta color leads to the quantification of calcium in a reagent. […]” for “week.”"}, "[3]": {"experiment": "Weight changes and weight gaining rate in ovari-ectomized rats", "assay_type": "in vivo, rat", "procedure": "As the experimental animals, white female SD (Sprague-Dawley) rats (230˜250 g) were purchased from Hallym Research Institute of Experimental animals (Kyunggido, Korea). The rats were raised at 23±1° C., under 40˜60% humidity and 12-hour light and shade cycle. Feed (solid feed, Hallym Research Institute of Experimental animals, Kyunggido, Korea) and water were given freely, but just water was supplied on the day before drawing blood. For removal of ovary, a 12-week old white rat was anesthetized by ether. The rat got a shave on its back by a razor. Oophorectomy was performed after sterilizing the operating area with 70% ethanol. Particularly, skin was cut 2˜3 cm along the spinal column of the abdominal lower-flank region of one side, and then, muscle and peritoneum were incised 1.5 cm to exposure ovary. After ligating oviduct by a silk, the ovary was cut off and peritoneum, muscle and skin were sutured by a silk. The other side ovary was ectomized by the same procedure. Sham operation was performed for a control group, which opened peritoneum but sutured without taking ovary out. A period of recovery was 1 week. Test animals were classified into three groups; a normal group (non-ovari-ectomized group), a control group 1 (sham-operated group) and an ovari-ectomized group. The ovari-ectomized group was sub-divided into a control group 2, which was not administered with a sample, a 17-beta estradiol treating group (E group), an extract of Sophorae Fructus of Example 1 administering group (R-G group), an enzyme extract of Sophorae Fructus of Example 2 administering group (R-A group), a food composition comprising the extract of Sophorae Fructus of Example 3 administering group (R-P group) and a soybean ex-powder administering group (S-S group) by 10 animals each (Table 1). […] Weights of each group of the above Example <5-2> were measured with an electronic scale, from which weight gaining rate per day was calculated by the below formula. […]"}},
  "data": [
    {"molecule": "C[C@]12CC[C@@H]3c4ccc(O)cc4CC[C@H]3[C@@H]1CC[C@@H]2O", "note": "[E, 17-beta estradiol]", "values": [
      {"measurement": "Dpd concentration in blood plasma after 9 weeks of administration (10th week)", "setting": "Dpd (deoxypyridinoline); 0.556 g/kg/day oral, E group 1 g/kg/day intraperitoneal", "result": "rapid drop of Dpd concentration"},
      {"measurement": "decrease rate of Dpd, regarding the amount of decreased Dpd of E group as 100%", "setting": "Dpd (deoxypyridinoline); 9 weeks administration", "result": 100, "unit": "%"},
      {"measurement": "ΔDpd value (Dpd before administration versus after 9-week administration)", "setting": "Dpd (deoxypyridinoline); negative = decrease of Dpd concentration", "result": "negative"},
      {"measurement": "osteoblast proliferation effect (MTT, OD570)", "setting": "[1]; 10^-4 to 10^-12%", "result": "cell proliferation depended on its concentration"},
      {"measurement": "osteoblast proliferation at low concentration versus high concentration", "setting": "[1]; low concentration 10^-10% (estradiol 10^-10% and 10^-12%)", "result": "proliferation decreased"},
      {"measurement": "TGF-beta concentration (ELISA)", "setting": "TGF-beta; 10^-4 to 10^-10%", "result": "evenly higher TGF-beta concentration"},
      {"measurement": "TGF-beta concentration / secretion promoting activity (ELISA)", "setting": "TGF-beta; minimum concentration 10^-12%", "result": "decreased to the similar level to that in a control group"},
      {"measurement": "IGF-1 concentration (ELISA), comparison of groups", "setting": "IGF-1", "result": "highest IFG-1 concentration"},
      {"measurement": "calcium concentration in blood plasma, 10 week", "setting": "[2]; after 9 weeks administration (0.556 g/kg/day oral; estradiol 1 g/kg/day intraperitoneal), mean ± SD", "result": "17.96 ± 1.334"},
      {"measurement": "course of calcium concentration in blood plasma after start of administration", "setting": "[2]; from the first week on", "result": "rapid increase of calcium concentration"},
      {"measurement": "Weight gaining rate (g/day)", "setting": "[3]; ovari-ectomized SD rats, 12 to 22 weeks old, 0.556 g/kg/day oral, E group 1 g/kg/day intraperitoneal, mean ± SD, * significant p < 0.05", "result": "1.0095 ± 0.1* g/day"},
      {"measurement": "Weight (g): Final weight (22 weeks old)", "setting": "[3]; ovari-ectomized SD rats, after 9 weeks administration (0.556 g/kg/day oral; E group 1 g/kg/day intraperitoneal), mean ± SD", "result": "302.4 ± 29.885", "unit": "g"},
      {"measurement": "weight gaining after removal of ovary", "setting": "[3]; ovari-ectomized rats, versus rapid weight gaining in control group 2", "result": "slow"}
    ]}
  ]
}
